Measurements published in patent US20240139199A1, “USE OF ADENINE IN PREPARATION OF DRUG FOR TREATING DIABETIC ULCERS” (Energenesis Biomedical Co., Ltd., priority 2021, published 2024).

Columns and labels:
[1] = system: COX-2; assay: COX-2 protein expression (stated finding, no method given); type: cell-based
[2] = system: diabetic ulcers; assay: double arm, double-blind study of adenine gel in subjects with diabetic ulcers (wound healing); type: in vivo, human
Procedure: The efficacy of adenine and/or a pharmaceutically acceptable salt thereof as a therapeutic agent for diabetic ulcers was evaluated through a double arm, double-blind study as disclosed in the present disclosure. The groups consist of a 0.02% adenine gel group and a placebo group. The basic information of the subjects is shown in Table 1, while the analysis of wound healing rates based on the Wagner-[…] ulcer classification system and initial wound area size is presented in Tables 2 to 4 below, respectively. Similarly, in a double arm, double-blind study as described in Example 1, the present disclosure evaluated the effects of the disclosed adenine and/or a pharmaceutically acceptable salt thereof as a medicament for treating the diabetic ulcers.

[3] = system: fibroblast; assay: fibroblast growth inhibition (stated finding, no method given); type: cell-based

## Nc1ncnc2nc[nH]c12 [adenine]
[1]
  protein expression of COX-2: reduce protein expression of COX-2
[2]; Grade 1 and/or Grade 2 ulcers, or wound area 1.5 to 25 square centimeters
  wound healing effect (in words): remarkably superior effects in accelerating and enhancing wound healing
[2]; directly administered to ulcer wounds in diabetic patients
  scar formation: scar formation is reduced
[2]; results from Table 5
  onset of wound healing (in words): rapid and effective healing starting from the fourth week
[3]
  fibroblast growth: inhibit fibroblast growth
